Experimental findings from ChEMBL document CHEMBL1154822, “Synthesis and antiproliferative activity of 7-azaindirubin-3'-oxime, a 7-aza isostere of the natural indirubin pharmacophore” (J Nat Prod, 2009) are described below.

Holding throughout (assay type): functional
What all share (details): read-out: Activity

The subject of experiment [1] is HOP-92. In words: Cytotoxicity against human HOP92 cells assessed as cell growth at 100 uM after 1 to 11 days by MTT assay. On the technique in general: Formazan colour is commonly taken as a measure of viable cells.
Experiment [2] in a line: Cytotoxicity against human Hs 578T cells assessed as cell growth at 0.1 uM after 1 to 11 days by MTT assay.
Experiment [3] relates to HCT-15. In words: Cytotoxicity against human HCT15 cells assessed as cell growth at 1 mM after 1 to 11 days by MTT assay.
Experiment [4] has as its system UACC-257. In words: Cytotoxicity against human UACC257 cells assessed as cell growth at 1 uM after 1 to 11 days by MTT assay.
For experiment [5], the system named is COLO 205. In words: Cytotoxicity against human COLO205 cells assessed as cell growth at 1 mM after 1 to 11 days by MTT assay.
The test system of experiment [6] is MDA-MB-468. In words: Cytotoxicity against human MDA-MB-468 cells assessed as cell growth at 10 uM after 1 to 11 days by MTT assay.
The subject of experiment [7] is M14. In words: Cytotoxicity against human M14 cells assessed as cell growth at 1 uM after 1 to 11 days by MTT assay.
The subject of experiment [8] is U-251. In words: Cytotoxicity against human U251 cells assessed as cell growth at 0.1 uM after 1 to 11 days by MTT assay.
The subject of experiment [9] is HCT-15. In words: Cytotoxicity against human HCT15 cells assessed as cell growth at 10 uM after 1 to 11 days by MTT assay.
The subject of experiment [10] is HT-29. In words: Cytotoxicity against human HT-29 cells assessed as cell growth at 100 uM after 1 to 11 days by MTT assay.
Experiment [11] has as its system TK-10. In words: Cytotoxicity against human TK10 cells assessed as cell growth at 1 mM after 1 to 11 days by MTT assay.
Experiment [12] has as its system SN12C. In words: Cytotoxicity against human SN12C cells assessed as cell growth at 10 uM after 1 to 11 days by MTT assay.
For experiment [13], the system named is UO-31. In words: Cytotoxicity against human UO31 cells assessed as cell growth at 1 uM after 1 to 11 days by MTT assay.
The test system of experiment [14] is RPMI-8226. In words: Cytotoxicity against human RPMI8226 cells assessed as cell growth at 100 uM after 1 to 11 days by MTT assay.
Experiment [15] relates to SK-OV-3. In words: Cytotoxicity against human SKOV3 cells assessed as cell growth at 1 mM after 1 to 11 days by MTT assay.
The test system of experiment [16] is KM12. In words: Cytotoxicity against human KM12 cells assessed as cell growth at 1 uM after 1 to 11 days by MTT assay.
For experiment [17], the system named is A549. In words: Cytotoxicity against human A549 cells assessed as cell growth at 1 mM after 1 to 11 days by MTT assay.

Take `O=C1Nc2ncccc2/C1=C1/Nc2ccccc2/C1=N\O`: the growth at 100 µM was 36% in experiment [1], 81% in [10] and 2% in experiment [14]. Also, the growth at 0.1 µM in [2] and in [8] was 97% throughout. Further, the growth at 1000 µM in experiment [3] was found to be 24%; in experiment [5], 23%; in experiment [11], 14%; in experiment [15] it was 8%; in [17], 13%. Further, the growth at 1 µM in experiment [4] amounted to 92%; in [7], 95%; in [13] it was 80%; in experiment [16] it was 91%. For the same molecule, the growth at 10 µM came out at 80% in experiment [6], 80% in experiment [9] and 81% in [12].
